Measurements taken from patent US20240115557A1, “INHIBITORS OF RNA-GUIDED NUCLEASES AND USES THEREOF” (The Brigham and Women's Hospital, Inc., priority 2022, published 2024).

Target: T1, SaCas9 (Staphylococcus aureus, UniProt J7RUA5)
T1 sequence (J7RUA5 1-1053): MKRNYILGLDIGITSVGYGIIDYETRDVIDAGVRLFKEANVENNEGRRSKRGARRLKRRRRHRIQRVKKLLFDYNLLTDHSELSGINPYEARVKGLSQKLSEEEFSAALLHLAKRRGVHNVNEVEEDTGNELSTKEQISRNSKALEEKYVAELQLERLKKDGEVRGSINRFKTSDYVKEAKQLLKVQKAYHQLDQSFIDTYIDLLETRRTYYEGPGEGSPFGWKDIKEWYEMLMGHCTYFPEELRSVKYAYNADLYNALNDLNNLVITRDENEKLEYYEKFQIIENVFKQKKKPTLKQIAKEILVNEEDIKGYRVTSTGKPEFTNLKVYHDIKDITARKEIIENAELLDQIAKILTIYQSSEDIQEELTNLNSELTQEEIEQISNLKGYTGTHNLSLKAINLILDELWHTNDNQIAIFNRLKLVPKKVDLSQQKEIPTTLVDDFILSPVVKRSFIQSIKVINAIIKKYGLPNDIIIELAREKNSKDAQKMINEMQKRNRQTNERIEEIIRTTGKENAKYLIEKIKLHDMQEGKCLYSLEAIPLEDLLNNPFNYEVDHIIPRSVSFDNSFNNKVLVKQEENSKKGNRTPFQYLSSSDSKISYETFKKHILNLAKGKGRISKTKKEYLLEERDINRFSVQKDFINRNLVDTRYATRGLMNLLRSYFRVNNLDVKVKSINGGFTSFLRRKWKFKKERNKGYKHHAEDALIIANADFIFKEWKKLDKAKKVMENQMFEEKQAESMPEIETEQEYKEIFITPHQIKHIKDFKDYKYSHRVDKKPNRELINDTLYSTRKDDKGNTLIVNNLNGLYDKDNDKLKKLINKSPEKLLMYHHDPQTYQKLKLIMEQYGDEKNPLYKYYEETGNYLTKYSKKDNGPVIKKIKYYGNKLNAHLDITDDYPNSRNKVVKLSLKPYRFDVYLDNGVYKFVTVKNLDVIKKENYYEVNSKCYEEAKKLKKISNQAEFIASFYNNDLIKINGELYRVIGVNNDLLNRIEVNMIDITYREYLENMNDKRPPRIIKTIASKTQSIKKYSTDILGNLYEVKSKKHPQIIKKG
Assay: Strand displacement assay, SaCas9 primary screen
Format: biochemical
Settings: for Auto Zscore Rep 1 / Auto Zscore Rep 2 / Normalized Zscore Rep 1 / Normalized Zscore Rep 2: SaCas9 primary screen; for Auto Zscore Rep 1 / Normalized Zscore Rep 1: replicate 1; for Auto Zscore Rep 2 / Normalized Zscore Rep 2: replicate 2; for Normalized Zscore Rep 1 / Normalized Zscore Rep 2: weaker potential hits; for 3 sigma Hit: flag 1 = hit at 3 sigma; for 5 sigma Hit: flag 1 = hit at 5 sigma
Protocol: An overview of the screening for SaCas9 inhibitors is depicted in FIG. 14. A total of 43,168 Compounds were screened from the ICCB Libraries. Libraries screened for the initial compounds include ChemDiv 7 (34,848 cpds), Enamine 1 (5,280 cpds), ChemDiv1 (1,760 cpds), NIH Clinical Collection (450 cpds), Biomol 4—FDA Approved Library (640 cpds). A hit is determined from the Zscore, with 3-5σ being a weak hit, >5σ being a strong hit. The results of the hits include 193 Weak Hits and 249 Strong Hits. The NIH Clinical Collection 1-2014 was screened for 450 of 450 compounds, with 7 hits—1.5%. The Biomol 4—FDA Approved Library was screened for 640 of 640 compounds, with 8 hits—1.2%. […] Enamine 1 was screened for 5,280 of 6,004 compounds, with 44 hits—0.83%. Libraries are commercially available, with reference numbers utilized for compounds identifying the compound structures used. […]
Generalization of CAA to other Cas nucleases. Applicants sought to generalize CAA to other CRISPR-associated nucleases, including from Staphylococcus aureus (SaCas9). Given the similarities between SaCas9 and SpCas9 modes of DNA-substrate binding and protein folding,^26, 27 Applicants hypothesized that SaCas9-induced strand displacement could be similarly measured. Indeed, fluorescence quenching correlated with substrate cleavage in the CAA assay with active SaCas9:gRNA and an ACGGGT PAM sequence, which was validated with gel electrophoresis (FIG. 62F,G and FIG. 69F).
First, Applicants optimized various components and conditions of the strand displacement assay for Cas enzyme activity and generality with different Cas such as SpCas9 (FIG. 62B) or SaCas9 (FIG. 69F) or FnCas12a (FIG. 70A,B). Typically, SpCas9: gRNA (1:1.2 ratio) RNP was pre-formed at 1 μM in Cas9 assay buffer (20 mM Tris-HCl, pH=7.5, 100 mM KCl, 5 mM MgCl2) for 5 min at 4° C. before diluting to 10 nM in Cas9 assay buffer (2× final concentration). 25 μL of the Cas9 2× stock was manually dispensed to a black 384-well plate (Corning 3575) using electronic pipette. Apo SpCas9 (without guide RNA) was used at the same concentration as a control for no activity (mock inhibition). Following this, pre-annealed Alexa-Fluor 647 labeled substrate and quencher were also diluted to 1 nM and 5 nM in Cas9 assay buffer, respectively (2× stock solution). Next, 25 μL of the substrate/quencher solution was added manually to each well of the Cas9-containing 384-well plates using an electronic pipette and was incubated at 37° C. for 2.5 h. Fluorescent signals were read with the microplate reader set to read Alexa-Fluor 647 fluorescence. Assay was performed similarly with SaCas9 and FnCas12a using the respective enzyme, gRNA, substrate, and quencher oligos. Applicants similarly divulged the effect of PAM sequences of dsDNA on its assay specificity using TGG, TGC, AAC PAM containing substrates for SpCas9 (FIG. 62C), and ACGGGT, ACGGTT, TGCCCA PAM substrate for SaCas9 (FIG. 62F) and TTTC, TTGC, AAAG PAM substrates for FnCpf1 (FIG. 63B-C). Applicants also optimized the effective concentration of DS-AF647 and SS-AF647 fluorophores (FIG. 64A), DS-substrate to SpCas9 RNP ratio (FIG. 64B) and substrate to quencher ratio (FIG. 64C) on assay performance. Similarly, Applicants performed a time course experiment to establish the time required for maximum completion of the reaction at various substrate to SpCas9 RNP ratios (FIG. 64D).

SMILES	Auto Zscore Rep 1	Auto Zscore Rep 2	Normalized Zscore Rep 1	Normalized Zscore Rep 2	3 sigma Hit	5 sigma Hit
O=C(CSc1nnc2ccccn12)N1CCc2ccccc2C1 [Cpd T0512-2617]	−1.3165	0.881	0.3066	0.3358	1	1
COc1ccc(-c2nc(N)s[n+]2-c2ccccc2)cc1 [Cpd T0501-2049]	0.5613	0.7691	0.6053	0.6033	1	1
Cc1occc1-c1nnc2sc(COc3ccc(Br)cc3)nn12 [Cpd D727-0114]	1.154	−0.6566	0.2766	0.2635	1	1
Cc1noc2c1C(c1ccc(O)c(O)c1)C1=C(CC(c3ccccc3)CC1=O)N2 (centres unmarked) [Cpd D588-0186]	0.2858	−0.8337	0.2526	0.3021	1	1
CCCCN(CC)c1ncc(NS(C)(=O)=O)cc1C(=O)O [Cpd F293-0529]	0.1547	−0.2374	0.1815	0.1895	1	
Cc1cc(C)c(S(=O)(=O)Nc2cnc(N3CCCC3)c(C(=O)O)c2)cc1C [Cpd F293-0458]	1.794	2.846	0.4509	0.429	1	1
Cc1cc(C)c(S(=O)(=O)Nc2cnc(N3CCCC3)c(C(=O)O)c2)c(C)c1 [Cpd F293-0426]	0.8114	1.196	0.2469	0.2531	1	1
Cn1nc(-c2ccc(Cl)cc2)c2cc(C(=O)O)sc21 [Cpd C660-1021]	1.316	1.188	0.2339	0.1885	1	1
CC1(C(=O)NC2CCCCC2)Cn2c(cc3ccccc32)C(=O)N1c1ccc2c(c1)OCCO2 (centres unmarked) [Cpd E234-0056]	1.418	1.057	0.2592	0.1597	1	
CCCCN(CC)c1ncc(NS(=O)(=O)CC)cc1C(=O)O [Cpd F293-0526]	0.7951	−0.08392	0.179	0.186	1	
CN(C)c1ncc(NS(=O)(=O)c2ccc(F)c(F)c2)cc1C(=O)O [Cpd F293-0815]	1.676	1.235	0.2087	0.159	1	
O=C(O)c1cc(NS(=O)(=O)c2cc(F)ccc2F)cnc1N1CCOCC1 [Cpd F293-0775]	−0.9384	0.6834	0.1939	0.1646	1	
Cc1noc2c1C(c1ccc(O)c(O)c1)C1=C(CC(c3ccc(O)cc3)CC1=O)N2 (centres unmarked) [Cpd D588-0188]	0.6685	0.2374	0.2133	0.2195	1	1
Cn1c(=O)c2c(-c3ccccc3)n3c(c2n(C)c1=O)C(c1ccc(O)c(O)c1)Nc1ccccc1-3 (centres unmarked) [Cpd D359-0009]	−1.668	−0.1926	0.1601	0.1044	1	1
CCN(Cc1ccccc1)c1ncc(NS(=O)(=O)c2c(C)cc(C)cc2C)cc1C(=O)O [Cpd F293-0002]	0.3791	−0.09351	0.2023	0.2291	1	
O=c1oc2c(O)c(O)ccc2c2c1CCC2 [Cpd D715-0012]	−0.8066	−0.8068	0.4402	0.5823	1	1
COc1ccc2cc3c(N)nn(C(=O)c4ccncc4)c3nc2c1 [Cpd C594-0003]	−0.6022	0.6643	0.2515	0.1978	1	
